Legend:
Assay type in all cases: in vivo
[1] = test system: barnyardgrass (Echinochloa crus-galli); assay: Test B flooded paddy; conditions: Echinochloa crus-galli, 336 h; 250 g ai/ha, Flood, 13 to 15 days, scale 0 (no effect) to 100 (complete control); read-out: Plant response rating, Barnyardgrass
Method in brief: (§1)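 Under a constant 3 cm flood, test compounds went directly into the paddy water. Following 13 to 15 days of greenhouse growth, treated species and controls were compared by eye.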

[2] = test system: ducksalad (Heteranthera limosa); assay: Test B flooded paddy; conditions: Heteranthera limosa, 336 h; 250 g ai/ha, Flood, 13 to 15 days, scale 0 (no effect) to 100 (complete control); read-out: Plant response rating, Ducksalad
Method in brief: as §1

rice (Oryza sativa) = assay: Test B flooded paddy; conditions: Oryza sativa, 336 h; 250 g ai/ha, Flood, 13 to 15 days, scale 0 (no effect) to 100 (complete control); read-out: Plant response rating, Rice
Method in brief: as §1

[3] = test system: sedge, umbrella (small-flower umbrella sedge, Cyperus difformis); assay: Test B flooded paddy; conditions: Cyperus difformis, 336 h; 250 g ai/ha, Flood, 13 to 15 days, scale 0 (no effect) to 100 (complete control); read-out: Plant response rating, Sedge, Umbrella
Method in brief: as §1

[4] = test system: barnyardgrass (Echinochloa crus-galli); assay: Test A preemergence; conditions: Echinochloa crus-galli, pre-emergence, 240 h, 0 to 100 scale, read-out: Plant response rating, Barnyardgrass; for pest or weed control at 125 g/ha: 125 g ai/ha; for pest or weed control at 500 g/ha: 500 g ai/ha
Method in brief: (§2)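 Injury scores run from 0, no effect, to 100, complete control, judged by eye against untreated plants roughly 10 days after treatment. Chemicals carried a surfactant in a non-phytotoxic solvent and went onto loam–sand soil preemergence or onto one- to two-leaf seedlings postemergence.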

[5] = test system: giant foxtail (Setaria faberii); assay: Test A preemergence; conditions: Setaria faberi, pre-emergence, 240 h; for pest or weed control at 125 g/ha: 125 g ai/ha; for pest or weed control at 500 g/ha: 500 g ai/ha
Method in brief: as §2

[6] = test system: pigweed (Amaranthus retroflexus); assay: Test A preemergence; conditions: Amaranthus retroflexus, pre-emergence, 240 h; for pest or weed control at 125 g/ha: 125 g ai/ha; for pest or weed control at 500 g/ha: 500 g ai/ha
Method in brief: as §2

[7] = test system: barnyardgrass (Echinochloa crus-galli); assay: Test A postemergence; conditions: Echinochloa crus-galli, post-emergence, 240 h, 0 to 100 scale, read-out: Plant response rating, Barnyardgrass; for pest or weed control at 125 g/ha: 125 g ai/ha; for pest or weed control at 500 g/ha: 500 g ai/ha
Method in brief: as §2

corn (Zea mays) = assay: Test A postemergence; conditions: Zea mays, post-emergence, 240 h, 0 to 100 scale; for Corn plant response rating (crop injury, 0 = no effect, 100 = complete kill) at 125 g/ha: 125 g ai/ha; for Corn plant response rating (crop injury, 0 = no effect, 100 = complete kill) at 500 g/ha: 500 g ai/ha
Method in brief: as §2

[8] = test system: giant foxtail (Setaria faberii); assay: Test A postemergence; conditions: Setaria faberi, post-emergence, 240 h, 0 to 100 scale, read-out: Plant response rating, Foxtail, Giant; for pest or weed control at 125 g/ha: 125 g ai/ha; for pest or weed control at 500 g/ha: 500 g ai/ha
Method in brief: as §2

[9] = test system: pigweed (Amaranthus retroflexus); assay: Test A postemergence; conditions: Amaranthus retroflexus, post-emergence, 240 h, 0 to 100 scale, read-out: Plant response rating, Pigweed; for pest or weed control at 125 g/ha: 125 g ai/ha; for pest or weed control at 500 g/ha: 500 g ai/ha
Method in brief: as §2

[10] = test system: wheat (Triticum aestivum); assay: Test A postemergence; conditions: Triticum aestivum, post-emergence, 240 h, 0 to 100 scale, read-out: Plant response rating, Wheat; for plant injury at 125 g/ha: 125 g ai/ha; for plant injury at 500 g/ha: 500 g ai/ha
Method in brief: as §2

[11] = test system: galium (catchweed bedstraw, Galium aparine); assay: Test C preemergence; conditions: Galium, pre-emergence, 336 h, scale 0 to 100, read-out: Plant response rating, Galium; for pest or weed control at 31 g/ha: 31 g ai/ha; for pest or weed control at 31 g/ha / pest or weed control at 62 g/ha / pest or weed control at 125 g/ha: preemergence; for pest or weed control at 62 g/ha: 62 g ai/ha; for pest or weed control at 125 g/ha: 125 g ai/ha
Source text: (§3) Seeds of plant species selected from blackgrass (Alopecurus myosuroides), Italian ryegrass (Lolium multiflorum), winter wheat (Triticum aestivum), galium (catchweed bedstraw, Galium aparine), corn (Zea mays), large (Lg) crabgrass (Digitaria sanguinalis), giant foxtail (Setaria faberii), johnsongrass (Sorghum halepense), lambsquarters (Chenopodium album), morningglory (Ipomoea coccinea), yellow nutsedge (Cyperus esculentus), pigweed (Amaranthus retroflexus), ragweed (common ragweed, Ambrosia elatior), soybean (Glycine max), barnyardgrass (Echinochloa crus-galli), oilseed rape (Brassica napus), waterhemp (common waterhemp, Amaranthus rudis), and velvetleaf (Abutilon theophrasti) were planted into a blend of loam soil and sand and treated preemergence with test chemicals formulated in a non-phytotoxic solvent mixture which included a surfactant.
(§4) At the same time, plants selected from these crop and weed species and also chickweed (common chickweed, Stellaria media), kochia (Kochia scoparia), and wild oat (Avena fatua), were planted in pots containing Redi-Earth® planting medium (Scotts Company, 14111 Scottslawn Road, Marysville, Ohio 43041) comprising spaghnum peat moss, vermiculite, wetting agent and starter nutrients and treated with postemergence applications of test chemicals formulated in the same manner. Plants ranged in height from 2 to 18 cm (1- to 4-leaf stage) for postemergence treatments. Treated plants and controls were maintained in a greenhouse for 13 to 15 days, after which time all species were compared to controls and visually evaluated. Plant response ratings, summarized in Table C, are based on a scale of 0 to 100 where 0 is no effect and 100 is complete control. A dash (-) response means no test result.

[12] = test system: lambsquarters (Chenopodium album); assay: Test C preemergence; conditions: Chenopodium album, pre-emergence, 336 h, scale 0 to 100, read-out: Plant response rating, Lambsquarters; for pest or weed control at 31 g/ha: 31 g ai/ha; for pest or weed control at 31 g/ha / pest or weed control at 62 g/ha / pest or weed control at 125 g/ha: preemergence; for pest or weed control at 62 g/ha: 62 g ai/ha; for pest or weed control at 125 g/ha: 125 g ai/ha
Source text: as §3, §4

[13] = test system: yellow nutsedge (Cyperus esculentus); assay: Test C preemergence; conditions: Cyperus, pre-emergence, 336 h, scale 0 to 100, read-out: Plant response rating, Nutsedge, Yellow; for pest or weed control at 31 g/ha: 31 g ai/ha; for pest or weed control at 31 g/ha / pest or weed control at 62 g/ha / pest or weed control at 125 g/ha: preemergence; for pest or weed control at 62 g/ha: 62 g ai/ha; for pest or weed control at 125 g/ha: 125 g ai/ha
Source text: as §3, §4

[14] = 0 to 100 scale, read-out: Plant response rating, Foxtail, Giant
[15] = 0 to 100 scale, read-out: Plant response rating, Pigweed

Row | SMILES | pest or weed control at 250 g/ha [1] [%] | pest or weed control at 250 g/ha [2] [%] | plant injury at 250 g/ha (rice (Oryza sativa)) [%] | pest or weed control at 250 g/ha [3] [%] | pest or weed control at 125 g/ha [4] [%] | pest or weed control at 500 g/ha [4] [%] | pest or weed control at 500 g/ha [5, 14] [%] | pest or weed control at 500 g/ha [6, 15] [%] | pest or weed control at 125 g/ha [7] [%] | pest or weed control at 500 g/ha [7] [%] | Corn plant response rating (crop injury, 0 = no effect, 100 = complete kill) at 125 g/ha (corn (Zea mays)) [%] | Corn plant response rating (crop injury, 0 = no effect, 100 = complete kill) at 500 g/ha (corn (Zea mays)) [%] | pest or weed control at 125 g/ha [8] [%] | pest or weed control at 500 g/ha [8] [%] | pest or weed control at 125 g/ha [9] [%] | pest or weed control at 500 g/ha [9] [%] | plant injury at 125 g/ha [10] [%] | plant injury at 500 g/ha [10] [%] | pest or weed control at 31 g/ha [11] [%] | pest or weed control at 62 g/ha [11] [%] | other results
1 | Fc1cccc(Oc2ncc(Cl)cn2)c1Oc1ncc(Cl)cn1 [Compound 21, 2,2′-[[3-fluoro-1,2-phenylene]bis(oxy)]bis[5-chloropyrimidine]] | 35 | 100 | 40 | 90 | 90 | 100 | 100 | 100 | 80 | 90 | 50 | 60 | 90 | 90 | 100 | 100 | 50 | 60 | 100 | 100 | pest or weed control at 125 g/ha ([5]; 0 to 100 scale (0 no effect, 100 complete control), read-out: Foxtail, Giant plant response rating): 100%; pest or weed control at 125 g/ha ([6]; 0 to 100 scale (0 no effect, 100 complete control), read-out: Pigweed plant response rating): 100%; pest or weed control at 125 g/ha [11]: 100%; pest or weed control at 16 g/ha ([11]; Preemergence, 16 g ai/ha): 98%; pest or weed control at 31 g/ha [12]: 100%; pest or weed control at 62 g/ha [12]: 100%; pest or weed control at 125 g/ha [12]: 98%; pest or weed control at 16 g/ha ([12]; Preemergence, 16 g ai/ha): 100%; pest or weed control at 31 g/ha [13]: 5%; pest or weed control at 62 g/ha [13]: 35%; pest or weed control at 125 g/ha [13]: 85%; pest or weed control at 16 g/ha ([13]; Preemergence, 16 g ai/ha): 0%
2 | N#Cc1cccc(Oc2ncc(Cl)cn2)c1Oc1ncc(Cl)cn1 [Compound 3, 2,3-bis[(5-chloro-2-pyrimidinyl)oxy]benzonitrile] | 20 | 90 | 35 | 90 | 100 | 100 | 100 | 100 | 90 | 90 | 50 | 80 | 90 | 90 | 100 | 100 | 60 | 80 | 90 | 90 | pest or weed control at 125 g/ha [5, 14]: 100%; pest or weed control at 125 g/ha [6, 15]: 100%; pest or weed control at 125 g/ha [11]: 90%; pest or weed control at 31 g/ha [12]: 100%; pest or weed control at 62 g/ha [12]: 100%; pest or weed control at 125 g/ha [12]: 100%; pest or weed control at 31 g/ha [13]: 5%; pest or weed control at 62 g/ha [13]: 15%; pest or weed control at 125 g/ha [13]: 55%
